Source: patent US6362337B1, “Substituted phenyluracils” (Bayer Aktiengesellschaft, priority 1997, dated 2002)

What was measured:
weeds [1] = test: Pre-emergence test, action against weeds; assay type: in vivo; conditions: soil sprayed about 24 hours after sowing, rated after three weeks vs untreated control
Protocol: (§1) To produce a suitable preparation of active compound, 1 part by weight of active compound is mixed with the stated amount of solvent, the stated amount of emulsifier is added and the concentrate is diluted with water to the desired concentration.
(§2) Seeds of the test plants are sown in normal soil. After about 24 hours, the soil is sprayed with the preparation of active compound such that the particular amounts of active compound desired are applied per unit area. The concentration of the spray liquor is chosen so that the particular amounts of active compound desired are applied in 1000 l of water/ha.
(§3) After three weeks, the degree of damage to the plants is rated in % damage in comparison with the development of the untreated control.
(§4) 0%=no effect (like untreated control)

weeds [2] = test: Post-emergence test, action against weeds; assay type: in vivo; conditions: test plants 5-15 cm sprayed, rated after three weeks vs untreated control
Protocol: as §1
as §2, with “Test plants having a height” for “Seeds”, “5-15 cm” for “the test plants”, “are” for “are sown in normal soil. After about 24 hours, the soil is”
as §3, §4

Row | SMILES | melting point [°C] | action against weeds (degree of damage to the plants) (weeds [1]) | action against weeds (degree of damage to the plants) (weeds [2])
1 | CCOC(=O)c1cc(-n2c(=O)cc(C(F)(F)F)[nH]c2=O)ccc1OC(C)=O [Example 1, 3-(4-acetoxy-3-ethoxycarbonyl-phenyl)-6-trifluoromethyl-1,2,3,4-tetrahydro-1H-pyrimidine-2,4-dione] | 155 |  | 
2 | CCOC(=O)c1cc(-n2c(=O)cc(C(F)(F)F)n(C)c2=O)ccc1OC(C)=O [Example 2, 3-(4-acetoxy-3-ethoxycarbonyl-phenyl)-1-methyl-6-trifluoromethyl-1,2,3,4-tetrahydro-1H-pyrimidine-2,4-dione] | 148 | very strong action against weeds | very strong action against weeds
3 | CCOC(=O)c1cc(-n2c(=O)cc(C(F)(F)F)n(N)c2=O)ccc1OC(C)=O [Example 3, 1-amino-3-(4-acetoxy-3-ethoxycarbonyl-phenyl)-6-trifluoromethyl-1,2,3,4-tetrahydro-1H-pyrimidine-2,4-dione] | 190 | very strong action against weeds | very strong action against weeds
